The target in one experiment is T1, Rbt5 (Candida albicans, UniProt Q59UT4).
T1 construct: Rbt5_23–219 (C-terminal Myc-6×His, expressed in Pichia pastoris)
The experiment in a line: ITC; also hemin-agarose pull-down, size exclusion co-elution, Soret peak. The class given is binding.

The target in the next experiment is T2, Pga7 (Candida albicans, UniProt Q59UT5).
T2 construct: Pga7_18–195 (C-terminal Myc-6×His, expressed in Pichia pastoris)
Briefly: ITC; also Soret-shift UV-Vis titration ([…]), 1H NMR, hemin-agarose pull-down. The format is binding. On the technique in general: Isothermal titration calorimetry measures the heat released or taken up as one component is titrated into another.

The next experiment concerns the target T3, Rbt5(23–219)-Myc-6×His (C. albicans, UniProt Q59UT4 23-219).
T3 construct: Rbt5, C. albicans CFEM protein, residues 23-219: from the predicted signal peptide cleavage site to the predicted GPI anchor addition site; RBT5 nucleotides +67 to +657 cloned EcoRI-XbaI into pPICZalphaA (KB2258); Apo-protein (heme removed with 3 M imidazole); The vector pPICZalphaA may leave a few residues at the N-terminus after the alpha-factor signal is cut; also called rRbt5; recombinant …
T3 sequence: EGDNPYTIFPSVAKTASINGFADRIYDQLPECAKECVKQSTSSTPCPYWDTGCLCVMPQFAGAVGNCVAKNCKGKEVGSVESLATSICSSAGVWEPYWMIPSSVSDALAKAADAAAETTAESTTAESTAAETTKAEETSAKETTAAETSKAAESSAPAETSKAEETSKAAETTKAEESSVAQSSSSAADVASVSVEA
The experiment in a line: SPR; Biacore T200; apo-Pga7(18–195), apo-Rbt5(23–219) and apo-Rbt5(23–219) D72A immobilised on a CM-5 chip by amine chemistry; 3 µM holo-Pga7(18–195) (with heme) injected for 60 sec; double-blanked against an empty cell and buffer. The following applies: both partners purified. For orientation: Surface plasmon resonance follows binding to a sensor surface in real time, without labels.

One may read the Kd as a measure of binding affinity in units of concentration.

As for `C=CC1=C(C)C2=Cc3c(C=C)c(C)c4[n]3[Fe]([Cl])[n]3c(c(C)c(CCC(=O)O)c3=CC3=NC(=C4)C(C)=C3CCC(=O)O)=CC1=N2` [hemin], the values for the dissociation constant Kd at Rbt5 and on Pga7 were 5.4 µM and 0.065 µM, respectively.

B1: Pga7(18–195)-Myc-6×His (domain or fragment)
chain: NFGTYPKVPKTASINGFADPIYDLLPDCAKECVKFSTSNTPCPYWDTGCFCVMPQWAGLVGQCVAQKCKGEDVASARFLATSLCSVVGANTWMMPASISSMLSTAAGDAKEVTTIEGKTAKSWVTAPGSAAGSVVSETGSASETGSSESAQSTTTGSSSTGSSSTDSSSSSSSSPSSS
notes: Pga7, C. albicans CFEM protein, residues 18-195: from the predicted signal peptide cleavage site to the predicted GPI anchor addition site; PGA7 nucleotides +52 to +585 cloned EcoRI-XbaI into pPICZalphaA (KB2259); Used as apo-protein (heme removed) or as holo-protein (loaded with heme, not covalent); both are this one construct; The vector pPICZalphaA may leave a few residues at the N-terminus …
As to B1, the binding result with Rbt5(23–219)-Myc-6×His is “binds”.

These data come from paper PMC4183699, “A Relay Network of Extracellular Heme-Binding Proteins Drives C. albicans Iron Acquisition from Hemoglobin” (PLoS Pathogens, 2014).
